How the values were obtained:
[1] = tested on: β-catenin/Tcf-4 luciferase activity; assay: β-catenin/Tcf-4 luciferase assay of HI-B9 derivatives (cell line not stated); type: cell-based; conditions: FIG. 6A
Procedure: (§1) (B) HI-B16 inhibited anchorage-independent growth of colon cancer cells. HCT116, HT29, DLD1 and SW480 were incubated in agar plate with or without HI-B16 and HI-B9. In every case, HI-B16 was better than HI-B9 treatment.
Transient transfection was performed using jetPEI and assays to detect firefly luciferase and Renilla activities according to the manufacturer's manual (Promega). Briefly, cells were seeded onto 10-cm plates and co-transfected with 400 ng of the Renilla luciferase internal control gene and 4 μg of the TOP-flash luciferase reporter construct containing three tandem Tcf consensus binding sites upstream of luciferase cDNA, or the FOPflash luciferase reporter construct, a plasmid with mutated Tcf binding sites. After 16 h of transfection, cells were trypsinized and seeded onto 48-well plates, and cells were treated with respective chemicals for 24 h. Luciferase and Renilla activities were measured using their substrates.

[2] = tested on: HCT116 colon cancer cells; assay: Soft agar assay, anchorage-independent growth, HCT116; type: cell-based
Procedure: (§2) FIG. 2. […] HCT116 and HT-29 colon cancer cells. Colony formation of two cell lines were inhibited by treatment of β-catenin inhibitor candidates. Cells (8×10^3/ml) were incubated with or without HI-B5 or HI-B9 compounds in 1 mL of 0.33% BME agar containing 10% FBS or in 3.5 mL of 0.5% BME agar containing 10% FBS. The cultures were maintained at 37° C. in a 5% CO2 incubator for 7 days, after which the cell colonies were counted under a microscope.
(§3) Cells (8×10^3 per well) suspended in Basal Medium Eagle (BME) supplemented with 10% FBS were added to 0.3% agar with different doses of chemicals in a top layer over a basal layer of 0.6% agar. The cultures were maintained at 37° C. in a 5% CO2 incubator for 2 wk and then colonies were counted under a microscope using the Image-Pro Plus Software (v.4) program (Media Cybernetics).

[3] = tested on: HT-29 colon cancer cells; assay: Soft agar assay, anchorage-independent growth, HT29; type: cell-based
Procedure: as §2, §3

[4] = tested on: DLD1; assay: Soft agar assay, anchorage-independent growth, DLD1; type: cell-based
Procedure: as §1, §3

[5] = tested on: SW480; assay: Soft agar assay, anchorage-independent growth, SW480; type: cell-based
Procedure: as §1, §3

[6] = tested on: colon cancer cells; assay: Proliferation and anchorage-independent growth of colon cancer cells (statements over several lines); type: cell-based; conditions: every cell line tested: HCT116, HT29, DLD1 and SW480
Procedure: as §3

[7] = tested on: β-catenin; assay: Ex vivo pull-down with compound-conjugated Sepharose 4B beads and colon cancer cell lysate: β-catenin; type: binding; conditions: colon cancer cell lysates; compound-conjugated Sepharose 4B beads
Procedure: Protein extracts (500 μg) of colon cancer cells were mixed with Sepharose-4B beads (as a negative control) or chemical-conjugated Sepharose 4B beads (100 μl) in reaction buffer. After being washed five times with buffer, the proteins were visualized by Western blot analysis.

[8] = molecular target: T1, human β-catenin (126-781 amino acid residues) (Homo sapiens, UniProt P35222); assay: In vitro binding assay with purified β-catenin and compound-conjugated sepharose 4B bead
T1 construct: human β-catenin (126-781 amino acid residues)
T1 sequence (P35222 126-781): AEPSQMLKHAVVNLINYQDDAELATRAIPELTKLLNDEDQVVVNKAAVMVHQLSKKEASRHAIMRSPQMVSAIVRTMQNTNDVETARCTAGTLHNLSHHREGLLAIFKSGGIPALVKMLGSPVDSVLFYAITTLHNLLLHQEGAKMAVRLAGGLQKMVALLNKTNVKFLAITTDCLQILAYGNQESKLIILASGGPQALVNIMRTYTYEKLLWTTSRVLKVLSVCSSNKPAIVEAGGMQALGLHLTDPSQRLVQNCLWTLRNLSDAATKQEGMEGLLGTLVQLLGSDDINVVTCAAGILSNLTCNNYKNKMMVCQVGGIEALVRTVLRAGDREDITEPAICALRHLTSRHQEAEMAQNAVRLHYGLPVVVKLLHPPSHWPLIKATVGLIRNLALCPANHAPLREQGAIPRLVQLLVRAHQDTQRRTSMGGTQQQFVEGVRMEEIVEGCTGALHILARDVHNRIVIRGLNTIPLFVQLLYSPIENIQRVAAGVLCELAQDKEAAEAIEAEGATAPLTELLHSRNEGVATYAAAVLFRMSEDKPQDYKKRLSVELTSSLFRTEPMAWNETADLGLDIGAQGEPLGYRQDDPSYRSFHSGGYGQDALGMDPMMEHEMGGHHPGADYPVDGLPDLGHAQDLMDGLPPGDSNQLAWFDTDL
Procedure: FIGS. 7A-C. […] 2% of input from each experiments were used to show equal amount of incubated protein (purified or total cell lysates).
Based on the structure of the active compound HI-B9, additional analogs HI-B12, 13, 16, 17 and 20 (FIG. 5) were de novo designed and synthesized. […] 2% of input from each experiments were used to show equal amount of incubated protein (purified or total cell lysates).

[9] = tested on: c-Myc and cyclin D1; assay: Western blot analysis of β-catenin/Tcf-4 targets; type: cell-based
Procedure: Proteins from cell lysates were prepared, separated by SDS-PAGE and transferred to Immobilon-P membranes (Millipore Corporation, Billerica, Mass.). Membranes were blocked with 5% nonfat dry milk for 1 h at room temperature and incubated with each of the primary and secondary antibodies. The signal was detected with a chemiluminescence reagent (Amersham).

O=C(CC1(O)C(=O)Nc2ccc(F)cc21)c1ccc(O)c(C23CC4CC(CC(C4)C2)C3)c1 (centres unmarked) [HI-B16]
inhibitory effect in β-catenin/Tcf-4 luciferase assay compared with HI-B9 [1]: exerted inhibitory effects better than HI-B9
inhibition of luciferase activity ([1]; concentration not given): ~90%
anchorage-independent growth (colony formation in soft agar) [2]: inhibit anchorage-independent growth
anchorage-independent growth (colony formation in soft agar) [3]: inhibit anchorage-independent growth
anchorage-independent growth (colony formation in soft agar) [4]: inhibit anchorage-independent growth
anchorage-independent growth (colony formation in soft agar) [5]: inhibit anchorage-independent growth
inhibition of anchorage-independent growth compared with HI-B9 treatment [6]: more effective than HI-B9
binding to β-catenin (ex vivo pull-down) [7]: resulted in HI-B16/β-catenin binding
binding of purified β-catenin to compound-conjugated bead (in vitro) [8]: bound
protein expression of c-Myc and cyclin D1 [9]: inhibited cyclin D1 and c-myc expression
β-catenin and Tcf-4 expression level [9]: not affected
